Experiments:
Assay in all cases: relative viability (nuclei count vs DMSO), 5 days (fraction); higher = more cells survive
[1] = compound: O[C@@H](COc1cccc2ncccc12)CN1CCN([C@@H]2c3ccccc3[C@@H]3[C@H](c4ccccc42)C3(F)F)CC1 [Zosuquidar] + Cc1nc(Nc2ncc(C(=O)Nc3c(C)cccc3Cl)s2)cc(N2CCN(CCO)CC2)n1 [Dasatinib] (partner 0.075 µM)
In short: (§1)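 Lung cancer cell lines were seeded in 1536-well plates and dosed by pin tool the next day, with either a single drug or a fixed anchor-drug dose combined with five library-drug doses (not always all listed) spaced in √10 steps. Five days later, one step fixed the cells and stained their nuclei (final 0.05% Triton X-100, 1% formaldehyde, 1 ug/ml Hoechst), and nuclei were counted on 4× images. Relative viability is the nuclei count in treated wells divided by the count in vehicle wells, and each value is the median of duplicate plates.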

[2] = compound: COc1cc2nccc(Oc3ccc(NC(=O)C4(C(=O)Nc5ccc(F)cc5)CC4)cc3)c2cc1OC [Cabozantinib] + C[C@@H](Oc1cc(-c2cnn(C3CCNCC3)c2)cnc1N)c1c(Cl)ccc(F)c1Cl [Crizotinib] (partner 1 µM)
In short: as §1

[3] = compound: COc1cc2nccc(Oc3ccc(NC(=O)C4(C(=O)Nc5ccc(F)cc5)CC4)cc3)c2cc1OC [Cabozantinib] + CS(=O)(=O)CCNCc1ccc(-c2ccc3ncnc(Nc4ccc(OCc5cccc(F)c5)c(Cl)c4)c3c2)o1 [Lapatinib] (partner 2 µM)
In short: as §1

SK-MES-1 showed a relative viability ([1]; first compound 0.01 µM) of 0.361, a relative viability ([1]; first compound 0.03162 µM) of 0.339 and a relative viability ([1]; first compound 0.1 µM) of 0.343. For the same cell line, the relative viability ([1]; first compound 0.3162 µM) was 0.365, the relative viability ([1]; first compound 1 µM) was 0.361 and the relative viability ([2]; first compound 0.02 µM) was 1.13. It also gave a relative viability ([2]; first compound 0.06325 µM) of 1.14, a relative viability ([2]; first compound 0.2 µM) of 1.02 and a relative viability ([2]; first compound 0.6325 µM) of 1.03. For the same cell line, the relative viability ([2]; first compound 2 µM) was 0.825, the relative viability ([3]; first compound 0.02 µM) was 0.468 and the relative viability ([3]; first compound 0.06325 µM) was 0.497. It also gave a relative viability ([3]; first compound 0.2 µM) of 0.42, a relative viability ([3]; first compound 0.6325 µM) of 0.448 and a relative viability ([3]; first compound 2 µM) of 0.396.

Work on HCC-366 yielded a relative viability ([1]; first compound 0.01 µM) of 0.608, a relative viability ([1]; first compound 0.03162 µM) of 0.468 and a relative viability ([1]; first compound 0.1 µM) of 0.496. It also gave a relative viability ([1]; first compound 0.3162 µM) of 0.767, a relative viability ([1]; first compound 1 µM) of 0.704 and a relative viability ([2]; first compound 0.02 µM) of 0.71. The relative viability ([2]; first compound 0.06325 µM) was 0.778, the relative viability ([2]; first compound 0.2 µM) was 0.547 and the relative viability ([2]; first compound 0.6325 µM) was 0.358. It also gave a relative viability ([2]; first compound 2 µM) of 0.385, a relative viability ([3]; first compound 0.02 µM) of 1.08 and a relative viability ([3]; first compound 0.06325 µM) of 1.07. It also gave a relative viability ([3]; first compound 0.2 µM) of 1.05, a relative viability ([3]; first compound 0.6325 µM) of 1.13 and a relative viability ([3]; first compound 2 µM) of 0.957.

In the case of NCI-H3122, the relative viability ([1]; first compound 0.01 µM) is reported as 0.666, the relative viability ([1]; first compound 0.03162 µM) is reported as 0.653 and the relative viability ([1]; first compound 0.1 µM) is reported as 0.787. For the same cell line, the relative viability ([1]; first compound 0.3162 µM) was 0.863, the relative viability ([1]; first compound 1 µM) was 0.914 and the relative viability ([2]; first compound 0.02 µM) was 0.272. The relative viability ([2]; first compound 0.06325 µM) was 0.301, the relative viability ([2]; first compound 0.2 µM) was 0.271 and the relative viability ([2]; first compound 0.6325 µM) was 0.297. It also gave a relative viability ([2]; first compound 2 µM) of 0.309, a relative viability ([3]; first compound 0.02 µM) of 1.01 and a relative viability ([3]; first compound 0.06325 µM) of 1.01. It also gave a relative viability ([3]; first compound 0.2 µM) of 1.02, a relative viability ([3]; first compound 0.6325 µM) of 1.03 and a relative viability ([3]; first compound 2 µM) of 0.954.

For COR-L 105, the relative viability ([1]; first compound 0.01 µM) was 0.353, the relative viability ([1]; first compound 0.03162 µM) was 0.334 and the relative viability ([1]; first compound 0.1 µM) was 0.341. The relative viability ([1]; first compound 0.3162 µM) was 0.358, the relative viability ([1]; first compound 1 µM) was 0.279 and the relative viability ([2]; first compound 0.02 µM) was 0.653. The relative viability ([2]; first compound 0.06325 µM) was 1.03, the relative viability ([2]; first compound 0.6325 µM) was 0.659 and the relative viability ([2]; first compound 2 µM) was 0.561. The relative viability ([3]; first compound 0.02 µM) was 0.321, the relative viability ([3]; first compound 0.06325 µM) was 0.341 and the relative viability ([3]; first compound 0.6325 µM) was 0.352. It also gave a relative viability ([3]; first compound 2 µM) of 0.372.

Work on 201T yielded a relative viability ([1]; first compound 0.01 µM) of 0.611, a relative viability ([1]; first compound 0.03162 µM) of 0.551 and a relative viability ([1]; first compound 0.1 µM) of 0.526. It also gave a relative viability ([1]; first compound 0.3162 µM) of 0.632, a relative viability ([1]; first compound 1 µM) of 0.581 and a relative viability ([2]; first compound 0.02 µM) of 1.04. For the same cell line, the relative viability ([2]; first compound 0.06325 µM) was 1.02, the relative viability ([2]; first compound 0.2 µM) was 0.988 and the relative viability ([2]; first compound 0.6325 µM) was 0.956. It also gave a relative viability ([2]; first compound 2 µM) of 0.976, a relative viability ([3]; first compound 0.02 µM) of 1.02 and a relative viability ([3]; first compound 0.06325 µM) of 1.14. It also gave a relative viability ([3]; first compound 0.2 µM) of 0.991, a relative viability ([3]; first compound 0.6325 µM) of 0.999 and a relative viability ([3]; first compound 2 µM) of 1.08.

In the case of NCI-H2228, the relative viability ([1]; first compound 0.01 µM) is reported as 0.507, the relative viability ([1]; first compound 0.03162 µM) is reported as 0.573 and the relative viability ([1]; first compound 0.1 µM) is reported as 0.612. For the same cell line, the relative viability ([1]; first compound 0.3162 µM) was 0.621, the relative viability ([1]; first compound 1 µM) was 0.551 and the relative viability ([2]; first compound 0.02 µM) was 0.581. The relative viability ([2]; first compound 0.06325 µM) was 0.496, the relative viability ([2]; first compound 0.2 µM) was 0.505 and the relative viability ([2]; first compound 0.6325 µM) was 0.403. It also gave a relative viability ([2]; first compound 2 µM) of 0.315, a relative viability ([3]; first compound 0.02 µM) of 1.08 and a relative viability ([3]; first compound 0.06325 µM) of 1.41. The relative viability ([3]; first compound 0.2 µM) was 1.11, the relative viability ([3]; first compound 0.6325 µM) was 1 and the relative viability ([3]; first compound 2 µM) was 1.06.

In the case of LC-2-ad, the relative viability ([1]; first compound 0.01 µM) is reported as 0.509, the relative viability ([1]; first compound 0.03162 µM) is reported as 0.74 and the relative viability ([1]; first compound 0.1 µM) is reported as 0.531. It also gave a relative viability ([1]; first compound 0.3162 µM) of 0.589, a relative viability ([1]; first compound 1 µM) of 0.613 and a relative viability ([2]; first compound 0.02 µM) of 0.438. The relative viability ([2]; first compound 0.06325 µM) was 0.606, the relative viability ([2]; first compound 0.2 µM) was 0.493 and the relative viability ([2]; first compound 0.6325 µM) was 0.474. For the same cell line, the relative viability ([2]; first compound 2 µM) was 0.467, the relative viability ([3]; first compound 0.02 µM) was 0.938 and the relative viability ([3]; first compound 0.06325 µM) was 1.04. It also gave a relative viability ([3]; first compound 0.2 µM) of 0.876, a relative viability ([3]; first compound 0.6325 µM) of 0.622 and a relative viability ([3]; first compound 2 µM) of 0.253.

For NCI-H2087, the relative viability ([1]; first compound 0.01 µM) was 0.773, the relative viability ([1]; first compound 0.1 µM) was 0.668 and the relative viability ([1]; first compound 0.3162 µM) was 0.91. It also gave a relative viability ([1]; first compound 1 µM) of 0.919, a relative viability ([2]; first compound 0.02 µM) of 0.95 and a relative viability ([2]; first compound 0.06325 µM) of 0.831. It also gave a relative viability ([2]; first compound 0.2 µM) of 0.75, a relative viability ([2]; first compound 0.6325 µM) of 0.871 and a relative viability ([2]; first compound 2 µM) of 0.99. The relative viability ([3]; first compound 0.02 µM) was 1.09, the relative viability ([3]; first compound 0.06325 µM) was 1.18 and the relative viability ([3]; first compound 0.2 µM) was 1.02. The relative viability ([3]; first compound 0.6325 µM) was 1.01 and the relative viability ([3]; first compound 2 µM) was 0.982.

Work on LK-2 yielded a relative viability ([1]; first compound 0.01 µM) of 0.31, a relative viability ([1]; first compound 0.03162 µM) of 0.41 and a relative viability ([1]; first compound 0.1 µM) of 0.291. For the same cell line, the relative viability ([1]; first compound 0.3162 µM) was 0.297, the relative viability ([1]; first compound 1 µM) was 0.314 and the relative viability ([2]; first compound 0.06325 µM) was 0.225. For the same cell line, the relative viability ([2]; first compound 0.2 µM) was 0.201, the relative viability ([2]; first compound 0.6325 µM) was 0.179 and the relative viability ([2]; first compound 2 µM) was 0.204. For the same cell line, the relative viability ([3]; first compound 0.06325 µM) was 1.15, the relative viability ([3]; first compound 0.2 µM) was 0.929 and the relative viability ([3]; first compound 0.6325 µM) was 0.948. For the same cell line, the relative viability ([3]; first compound 2 µM) was 0.856.

— the supplement of paper PMC10307832
